Assay results from paper PMC4805082, “Seizure control by decanoic acid through direct AMPA receptor inhibition” (Brain, 2015).

Experiments:
[1] = test system: GABAA receptor mediated IPSCs in hippocampal CA1 pyramidal neurons; assay: Whole-cell patch clamp, evoked GABAA receptor mediated IPSCs in CA1 pyramidal cells; assay type: cell-based, rat; settings: 300 µM
Method: Male Sprague-Dawley rats (postnatal Days 19–30) were sacrificed using an overdose of isoflurane or pentobarbitone (500 mg/kg). After decapitation the brain was rapidly removed, the hippocampus or entorhinal cortex-hippocampus slices was dissected from the brain and […] thick transverse slices were prepared on a VT1200S vibratome (Leica) or Vibratome (Vibratome® 1500 sectioning system, Intracell). The slicing was performed in ice-cold sucrose-based solution containing (in mM): 75 sucrose, 87 NaCl, 22 glucose, 2.5 KCl, 7 MgCl2, 1.25 NaH2PO4, 0.5 CaCl2 and 25 NaHCO3, pH 7.4, 315–330 mOsm equilibrated with 95% O2 plus 5% CO2. […]
For electrophysiological recording, the slices were placed in a recording chamber constantly perfused with 32–34°C oxygenated artificial CSF solution using a gravity-driven perfusion system. […] Series resistance was monitored throughout experiments using a −5 mV step command and cells showing a >20% change in series resistance, a series of resistance of >20 MΩ or an unstable holding current were rejected. […] Inhibitory postsynaptic current (IPSCs) were recorded in the presence of DL-APV (100 µM), NBQX (10 µM) and CGP55845 (5 µM) to block NMDA-, AMPA- and GABAB-receptors, respectively. […]

[2] = design: method as in Wlaz et al., 2012; settings: mice, gastric gavage 30 mmol/kg; ref Wlaz et al., 2012; cited from earlier work
[3] = design: method as in earlier work; settings: average; children with intractable epilepsy on MCT diet; ref Haidukewych et al., 1982; Sills et al., 1986a; Dean et al., 1989; cited from earlier work
[4] = test system: AMPA receptor mediated EPSCs in hippocampal CA1 pyramidal neurons; assay: Whole-cell patch clamp, evoked AMPA receptor mediated EPSCs in CA1 pyramidal cells; assay type: cell-based, rat; settings: n = 6
Method: Male Sprague-Dawley rats (postnatal Days 19–30) were sacrificed using an overdose of isoflurane or pentobarbitone (500 mg/kg). After decapitation the brain was rapidly removed, the hippocampus or entorhinal cortex-hippocampus slices was dissected from the brain and […] thick transverse slices were prepared on a VT1200S vibratome (Leica) or Vibratome (Vibratome® 1500 sectioning system, Intracell). The slicing was performed in ice-cold sucrose-based solution containing (in mM): 75 sucrose, 87 NaCl, 22 glucose, 2.5 KCl, 7 MgCl2, 1.25 NaH2PO4, 0.5 CaCl2 and 25 NaHCO3, pH 7.4, 315–330 mOsm equilibrated with 95% O2 plus 5% CO2. The slices were then stored in a continuously oxygenated humidified interface holding chamber containing oxygenated artificial CSF (in mM): 120 NaCl, 22 glucose, 2.5 KCl, 1.3 MgSO4, 1 NaH2PO4, 25 NaHCO3 and 2.5 CaCl2, pH 7.4 296 mOsm, where they recovered for at least 1 h before use.
For electrophysiological recording, the slices were placed in a recording chamber constantly perfused with 32–34°C oxygenated artificial CSF solution using a gravity-driven perfusion system. Whole-cell patch clamp recordings were performed on CA1 pyramidal cells (input resistance 330 ± 70 MΩ) visualized using an infrared differential contrast imaging system. For patching, standard walled borosilicate glass pipettes with a resistance of 2.5–3.5 MΩ were used, filled with an intracellular pipette solution containing (in mM): 120 Cs-methanesulphonate, 10 HEPES, 0.2 EGTA, 8 NaCl, 0.2 MgCl2, 2 Mg-ATP, 0.3Na-GTP, 5 QX314-Br, 10 phosphocreatine, pH adjusted to 7.2 and osmolality adjusted to 296 mOsm. Series resistance was monitored throughout experiments using a −5 mV step command and cells showing a >20% change in series resistance, a series of resistance of >20 MΩ or an unstable holding current were rejected. Recordings of excitatory postsynaptic currents (EPSCs) were performed in the presence of DL-APV (DL-2-amino-5-phosphonopentanoic; 100 µM), picrotoxin (100 µM) and CGP55845 (5 µM) to block NMDA-, GABAA- and GABAB-receptors, respectively. Decanoic acid (Sigma) was added to the perfusion solution. EPSCs were evoked by stimulation of Schaffer collaterals. Paired pulses were evoked with stimulations separated by 50 ms. Inhibitory postsynaptic current (IPSCs) were recorded in the presence of DL-APV (100 µM), NBQX (10 µM) and CGP55845 (5 µM) to block NMDA-, AMPA- and GABAB-receptors, respectively.
Recordings were obtained using a MultiClamp 700B amplifier (Axon instruments) and filtered at 4 kHz, digitized at 10 kHz, and stored on a PC. LabView8 (National instruments) was used for data acquisition and off-line analysis.

## CCCCCCCCCC(=O)O [decanoic acid]
[1]
  effect on evoked IPSCs: no significant effect
[1]; versus baseline, n = 6
  effect on 1/CV^2 for IPSCs: no effect
[2]
  brain concentration: up to 240 µM
  brain concentration as share of serum levels: 60–80%
[3]
  serum concentration: 156.7 µM
[4]; 100 µM
  decrease of EPSC amplitude: 17.0 ± 5.6%
[4]; 300 µM
  decrease of EPSC amplitude: 38.9 ± 5.5%
[4]; 300 µM, versus baseline
  effect on 1/CV^2 for EPSCs: no effect
  effect on paired pulse ratio for EPSCs: did not affect
